Data as given in patent US11566007B2, “Ras inhibitors” (Revolution Medicines, Inc., priority 2019, dated 2023).
Read-outs that look alike come from different tables or passages of the source.

How the values were obtained:
K-Ras G12C = K-Ras G12C (Homo sapiens (Human), UniProt P01116+P62937, G12C); assay: Ras-Raf (BRAF RBD) disruption / FRET / MOA assay, KRAS G12C; type: biochemical; details: KRAS G12C; Ras-Raf disruption/FRET/MOA assay; read-out: IC50* KRAS G12C FRET data
Description: (§1) The purpose of this biochemical assay is to measure the ability of test compounds to facilitate ternary complex formation between a nucleotide-loaded Ras isoform and cyclophilin A; the resulting ternary complex disrupts binding to a BRAF^RBD construct, inhibiting Ras signaling through a RAF effector.
(§2) Compound is present in plate wells as a 10-point 3-fold dilution series starting at a final concentration of 30 μM. After incubation at 25° C. for 3 hours, a mixture of Anti-His Eu-W1024 and anti-GST allophycocyanin is then added to assay sample wells at final concentrations of 10 nM and 50 nM, respectively, and the reaction incubated for an additional 1.5 hours. […] Compounds that facilitate disruption of a Ras:RAF complex are identified as those eliciting a decrease in the TR-FRET ratio relative to DMSO control wells.
(§3) This protocol may also be executed substituting other Ras proteins or nucleotides.
(§4) The purpose of this biochemical assay was to measure the ability of test compounds to facilitate ternary complex formation between a nucleotide-loaded K-Ras isoform and Cyclophilin A; the resulting ternary complex disrupts binding to a BRAF^RBD construct, inhibiting K-Ras signaling through a RAF effector. Data is reported as IC50 values.
as §2, with “Compound was” for “Compound is”, “allophycocyanin was” for “allophycocyanin is”, “a K-Ras:RAF” for “a Ras:RAF”, “complex were” for “complex are”

KRAS G12V = KRAS G12V (Homo sapiens (Human), UniProt P01116+P62937, G12V); assay: Ras-Raf (BRAF RBD) disruption / FRET / MOA assay, KRAS G12V; type: biochemical; details: read-out: IC50* KRAS G12V FRET data
Description: as §1, §2, §3, §4
as §2, with “Compound was” for “Compound is”, “allophycocyanin was” for “allophycocyanin is”, “a K-Ras:RAF” for “a Ras:RAF”, “complex were” for “complex are”

KRAS G12D = KRAS G12D (Homo sapiens (Human), UniProt P01116+P62937, G12D); assay: Ras-Raf (BRAF RBD) disruption / FRET / MOA assay, KRAS G12D; type: biochemical; details: Ras-Raf disruption/FRET/MOA assay; class symbols; read-out: KRAS G12D FRET data IC50
Method in brief: (§5)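 TR-FRET read-out: a drop in ratio relative to DMSO wells marks disruption of the Ras:RAF complex, reported as IC50. Compounds (3-fold series, 10 points, top 30 μM final) incubated 3 h at 25° C before Eu-anti-His 10 nM and APC-anti-GST 50 nM, 1.5 h more.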

KRAS WT = KRAS WT (Homo sapiens (Human), UniProt P01116+P62937); assay: Ras-Raf (BRAF RBD) disruption / FRET / MOA assay, KRAS WT; type: biochemical; details: read-out: IC50* KRAS WT FRET data
Description: as §1, §2, §3, §4
as §2, with “Compound was” for “Compound is”, “allophycocyanin was” for “allophycocyanin is”, “a K-Ras:RAF” for “a Ras:RAF”, “complex were” for “complex are”

[1] = test system: NCI-H358 cells (K-Ras G12C); assay: Potency assay: pERK in NCI-H358 cells; type: cell-based, human; details: H358 KRAS G12C, read-out: pERK EC50
Method in brief: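 pERK decrease read by AlphaLISA SureFire p-ERK1/2 or In-Cell Western after 4 h compound exposure at 37 °C, 5% CO2.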

NCI-H358 (K-Ras G12C) = assay: CellTiter-Glo cell viability assay, NCI-H358; type: cell-based, human; details: Homo sapiens, NCI-H358, 120 h, NCI-H358, 5-day treatment; class symbols; read-out: Additional H358 Cell Viability assay data (K-Ras G12C, IC50)
Method in brief: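 Compounds dispensed directly onto seeded K-Ras mutant cells; plates read on day 5 after ~30 min equilibration to room temperature, by CellTiter-Glo luminescence. Signal normalized as (sample/mean DMSO)×100, then fitted to a four-parameter logistic curve.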

KRAS G12S = KRAS G12S (Homo sapiens (Human), UniProt P01116+P62937, G12S); assay: Ras-Raf (BRAF RBD) disruption / FRET / MOA assay, KRAS G12S; type: biochemical; details: Ras-Raf disruption/FRET/MOA assay; class symbols; read-out: KRAS G12S FRET data IC50
Method in brief: as §5

KRAS G13D = KRAS G13D (Homo sapiens (Human), UniProt P01116+P62937, G13D); assay: Ras-Raf (BRAF RBD) disruption / FRET / MOA assay, KRAS G13D; type: biochemical; details: read-out: IC50* KRAS G13D FRET data
Description: as §1, §2, §3, §4
as §2, with “Compound was” for “Compound is”, “allophycocyanin was” for “allophycocyanin is”, “a K-Ras:RAF” for “a Ras:RAF”, “complex were” for “complex are”

K-Ras G13C = K-Ras G13C (Homo sapiens (Human), UniProt P01116+P62937, G13C); assay: Ras-Raf (BRAF RBD) disruption / FRET / MOA assay, KRAS G13C; type: biochemical; details: KRAS G13C; Ras-Raf disruption/FRET/MOA assay; read-out: IC50* KRAS G13C FRET data
Description: as §1, §2, §3, §4
as §2, with “Compound was” for “Compound is”, “allophycocyanin was” for “allophycocyanin is”, “a K-Ras:RAF” for “a Ras:RAF”, “complex were” for “complex are”

NRAS G12C = NRAS G12C (Homo sapiens (Human), UniProt P01111+P62937, G12C); assay: Ras-Raf (BRAF RBD) disruption / FRET / MOA assay, NRAS G12C; type: biochemical; details: read-out: IC50* NRAS G12C FRET data
Description: as §1, §2
This protocol may also be executed substituting other Ras proteins or nucleotides. […]

Chain of KRAS G12D (P01116-2 other isoform, or with tags, fused parts or gaps G12D): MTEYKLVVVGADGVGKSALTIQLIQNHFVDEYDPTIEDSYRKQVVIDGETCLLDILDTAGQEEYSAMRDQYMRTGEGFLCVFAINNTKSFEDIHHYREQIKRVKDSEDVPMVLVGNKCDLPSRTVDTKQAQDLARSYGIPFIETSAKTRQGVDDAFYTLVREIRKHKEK
Chain of KRAS G12D (P62937 whole entry): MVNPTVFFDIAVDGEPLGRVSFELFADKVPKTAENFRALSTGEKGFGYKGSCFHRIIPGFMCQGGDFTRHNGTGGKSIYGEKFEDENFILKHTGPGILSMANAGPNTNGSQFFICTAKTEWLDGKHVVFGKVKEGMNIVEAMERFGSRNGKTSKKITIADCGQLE
Chain of KRAS G13D (P01116-2 other isoform, or with tags, fused parts or gaps G13D): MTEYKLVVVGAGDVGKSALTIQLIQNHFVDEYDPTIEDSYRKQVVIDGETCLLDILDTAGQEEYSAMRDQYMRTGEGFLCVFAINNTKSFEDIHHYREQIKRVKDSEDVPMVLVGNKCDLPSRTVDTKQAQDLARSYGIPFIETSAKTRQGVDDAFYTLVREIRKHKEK
Chain of KRAS G13D (P62937 whole entry): as the sequence (P62937 whole entry) above
Chain of KRAS G12S (P01116-2 other isoform, or with tags, fused parts or gaps G12S): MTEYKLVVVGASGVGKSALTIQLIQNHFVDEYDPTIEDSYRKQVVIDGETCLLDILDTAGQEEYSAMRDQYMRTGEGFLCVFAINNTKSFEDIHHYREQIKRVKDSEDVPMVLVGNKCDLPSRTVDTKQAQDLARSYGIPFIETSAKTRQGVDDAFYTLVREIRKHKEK
Chain of KRAS G12S (P62937 whole entry): as the sequence (P62937 whole entry) above
Chain of NRAS G12C (P01111 whole entry G12C): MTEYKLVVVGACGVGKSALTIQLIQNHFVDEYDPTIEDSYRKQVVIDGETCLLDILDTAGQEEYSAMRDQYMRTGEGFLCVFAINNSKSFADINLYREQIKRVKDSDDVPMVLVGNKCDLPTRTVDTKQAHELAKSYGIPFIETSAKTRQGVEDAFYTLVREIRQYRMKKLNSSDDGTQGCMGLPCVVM
Chain of NRAS G12C (P62937 whole entry): as the sequence (P62937 whole entry) above
Chain of K-Ras G12C (P01116-2 other isoform, or with tags, fused parts or gaps G12C): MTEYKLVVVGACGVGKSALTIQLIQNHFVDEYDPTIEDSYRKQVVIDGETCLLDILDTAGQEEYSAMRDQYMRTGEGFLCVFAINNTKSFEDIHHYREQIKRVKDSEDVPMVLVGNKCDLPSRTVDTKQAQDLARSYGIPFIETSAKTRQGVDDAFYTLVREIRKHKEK
Chain of K-Ras G12C (P62937 whole entry, canonical isoform): as the sequence (P62937 whole entry) above
Chain of K-Ras G13C (P01116-2 other isoform, or with tags, fused parts or gaps G13C): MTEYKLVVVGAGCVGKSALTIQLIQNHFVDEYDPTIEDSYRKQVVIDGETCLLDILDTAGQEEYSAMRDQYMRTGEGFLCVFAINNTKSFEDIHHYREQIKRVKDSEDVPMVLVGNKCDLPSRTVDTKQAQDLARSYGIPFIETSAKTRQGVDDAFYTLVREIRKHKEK
Chain of K-Ras G13C (P62937 whole entry): as the sequence (P62937 whole entry) above
Chain of KRAS WT (P01116-2 other isoform, or with tags, fused parts or gaps): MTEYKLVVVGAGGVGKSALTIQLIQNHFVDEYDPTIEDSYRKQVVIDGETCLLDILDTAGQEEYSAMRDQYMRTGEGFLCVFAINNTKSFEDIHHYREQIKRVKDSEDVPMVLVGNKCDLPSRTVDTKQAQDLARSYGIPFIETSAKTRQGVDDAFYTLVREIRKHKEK
Chain of KRAS WT (P62937 whole entry): as the sequence (P62937 whole entry) above
Chain of KRAS G12V (P01116-2 other isoform, or with tags, fused parts or gaps G12V): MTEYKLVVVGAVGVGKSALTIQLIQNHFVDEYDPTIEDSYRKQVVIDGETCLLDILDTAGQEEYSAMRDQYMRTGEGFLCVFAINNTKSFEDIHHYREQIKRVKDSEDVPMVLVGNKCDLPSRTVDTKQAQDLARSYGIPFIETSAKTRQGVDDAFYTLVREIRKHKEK
Chain of KRAS G12V (P62937 whole entry): as the sequence (P62937 whole entry) above

CCn1c(-c2cnccc2COC)c2c3cc(ccc31)-c1cc(O)cc(c1)C[C@H](NC(=O)[C@H](C(C)C)N(C)C(=O)[C@H]1CCN(C(=O)C#CCN(C)C)C1)C(=O)N1CCC[C@H](N1)C(=O)OCC(C)(C)C2 (atropisomer, axis not shown) [Example A107]
IC50 (K-Ras G12C): < 10 nM | IC50 (KRAS G12V): 100 to 1000 nM | IC50 (KRAS G12D): 100 to 1000 nM | IC50 (KRAS WT): 100 to 1000 nM | EC50 [1]: < 5000 nM | IC50 (NCI-H358 (K-Ras G12C)): < 10 nM | IC50 (KRAS G12S): 100 to 1000 nM | IC50 (KRAS G13D): 100 to 1000 nM

C=CC(=O)N1CC[C@H](C(=O)N(C)[C@H](C(=O)N[C@H]2Cc3cccc(c3)-c3ccc4c(c3)c(c(-c3cnccc3COC)n4CC)CC(C)(C)COC(=O)[C@@H]3CCCN(N3)C2=O)C(C)C)C1 (atropisomer, axis not shown) [Example A119]
IC50 (K-Ras G12C): 100 to 1000 nM | IC50 (KRAS G12V): > 10000 nM | IC50 (KRAS G12D): > 10000 nM | IC50 (K-Ras G13C): 1000 to 10000 nM | EC50 ([1]; Homo sapiens, NCI-H358): < 5000 nM | IC50 (NRAS G12C): 100 to 1000 nM | IC50 (NCI-H358 (K-Ras G12C)): 10 to 100 nM | IC50 (KRAS G12S): 1000 to 10000 nM | IC50 (KRAS G13D): > 10000 nM

CCn1c(-c2cccnc2[C@H](C)OC)c2c3cc(ccc31)-c1cccc(c1)C[C@H](NC(=O)[C@H](C(C)C)N(C)C(=O)[C@H]1CCN(C(=O)/C=C/CN3CC(OC)C3)C1)C(=O)N1CCC[C@H](N1)C(=O)OCC(C)(C)C2 (atropisomer, axis not shown) [Example A204]
IC50 (K-Ras G12C): 10 to 100 nM | IC50 (KRAS G12V): 1000 to 10000 nM | IC50 (KRAS G12D): > 10000 nM | IC50 (K-Ras G13C): 1000 to 10000 nM | IC50 (KRAS WT): 1000 to 10000 nM | EC50 ([1]; Homo sapiens, NCI-H358): < 5000 nM | IC50 (NRAS G12C): 10 to 100 nM | IC50 (KRAS G12S): 1000 to 10000 nM

C=CC(=O)N1CCC(C(=O)N(C)[C@H](C(=O)N[C@H]2CCC(=O)N(C)Cc3ccc4c(c3)c(c(-c3cccnc3[C@H](C)OC)n4CC)CC(C)(C)COC(=O)[C@@H]3CCCN(N3)C2=O)C(C)C)C1 (atropisomer, axis not shown) [Example A500]
IC50 (KRAS G12V): > 10000 nM | IC50 (KRAS G12D): > 10000 nM | IC50 (K-Ras G13C): > 10000 nM | IC50 (KRAS WT): > 10000 nM | IC50 (NRAS G12C): > 10000 nM | IC50 (NCI-H358 (K-Ras G12C)): > 1000 nM | IC50 (KRAS G12S): > 10000 nM

C=CC(=O)N1CC[C@H](C(=O)N(C)[C@H](C(=O)N[C@H]2Cc3nc(cs3)-c3ccc4c(c3)c(c(-c3cc(C5=CCN(C)CC5)cnc3[C@H](C)OC)n4CC)CC(C)(C)COC(=O)[C@@H]3CCCN(N3)C2=O)C(C)C)C1 (atropisomer, axis not shown) [Example A521]
IC50 (K-Ras G12C): 1000 to 10000 nM | IC50 (KRAS G12D): > 10000 nM | EC50 ([1]; Homo sapiens, NCI-H358): < 5000 nM | IC50 (NRAS G12C): 1000 to 10000 nM | IC50 (KRAS G12S): 1000 to 10000 nM

CCn1c(-c2cccnc2COC)c2c3cc(ccc31)-c1cc(O)cc(c1)C[C@H](NC(=O)[C@H](C(C)C)N(C)C(=O)[C@H]1CCN(C(=O)C#CCN3CCOCC3)C1)C(=O)N1CCC[C@H](N1)C(=O)OCC(C)(C)C2 [Example A095]
IC50 (KRAS G12V): 100 to 1000 nM | IC50 (KRAS G12D): > 10000 nM | IC50 (K-Ras G13C): 100 to 1000 nM | IC50 (KRAS WT): 1000 to 10000 nM | IC50 (KRAS G12S): 100 to 1000 nM | IC50 (KRAS G13D): 1000 to 10000 nM

C=CC(=O)N(C)CCCC(=O)N(C)[C@H](C(=O)N[C@H]1Cc2cc(O)cc(c2)-c2ccc3c(c2)c(c(-c2cccnc2COC)n3CC)CC(C)(C)COC(=O)[C@@H]2CCCN(N2)C1=O)C(C)C [Example A101]
IC50 (K-Ras G12C): 100 to 1000 nM | IC50 (KRAS G12V): 100 to 1000 nM | IC50 (KRAS G12D): 1000 to 10000 nM | IC50 (K-Ras G13C): 100 to 1000 nM | IC50 (KRAS WT): 100 to 1000 nM | EC50 ([1]; Homo sapiens, NCI-H358): < 5000 nM | IC50 (NCI-H358 (K-Ras G12C)): 100 to 1000 nM | IC50 (KRAS G12S): 100 to 1000 nM
